Consider 32 substances from patent US20160319277A1, “METHODS OF IMPROVED PROTEIN PRODUCTION USING MIRNAs AND SIRNAs” (THE JOHNS HOPKINS UNIVERSITY, priority 2015, published 2016).

The subject of data set [1] is HEK-CMV-Luc2-Hygro cells. Put plainly: High-throughput genome-wide siRNA screen and validation screen for luciferase expression. The conditions noted are these: for Luciferase activity (%) / Per cell luciferase yield (%) / Viable cell number (%): Table 6, polyamine pathway gene siRNAs. Type of data set: cell-based, human. In short, it runs like this:
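HEK cells with CMV-driven luciferase were reverse-transfected with 0.8 pmol siRNA per well (3 per gene) via RNAiMax and grown 72 h at 37 °C. Duplicate wells read for luciferase (ONE-Glo) and viability (CellTiter-Glo). Values given as % of plate negative-control median with MAD-based z-scores; hits with ≥2 siRNAs at z>3 retested using 3 new siRNAs.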

Data set [2] deals with T-REx-293-NTSR1-GFP cells. Put plainly: High-throughput human miRNA mimic library screen, image-based per cell green fluorescence (NTSR1-GFP expression). To be noted: per cell green fluorescence intensity; for MAD-based z-score: 72 h after transfection plus 24 h tetracycline induction. The protocol: T-REx-293-NTSR1-GFP cells were screened with a miRNA mimic library (Qiagen) based on Sanger miRBase™ 13.0 and consisting of 875 miRNAs mimics. For transfection, 0.8 pmol of each mimic was spotted to 384 well plate wells (Corning) and 20 μL of serum-free DMEM containing 0.1 μL of Lipofectamine™ RNAiMax (Life Technologies) was then added to each well. This lipid-miRNA mixture was incubated at ambient temperature for 30 min prior to adding 2000 cells in 20 μL of DMEM containing 20% certified FBS (Gibco). Transfected cells were incubated at 37° C. in 5% CO2 for 72 hours and induced with 1 μg/mL tetracycline for 24 hours for NTSR1-GFP expression. Cells were then fixed with 2% paraformaldehyde (Electron Microscopy Sciences), stained with Hoechst™ 33342 (Life Technologies) for 45 minutes and gently washed with PBS. Plates were imaged with an ImageXpress Micro XL™ (Molecular Devices). Total cell number and per cell green fluorescence intensity were calculated using MetaXpress™ software (Molecular Devices) employing the Multi-Wavelength Cell Scoring™ application module. […] A full column of positive control siRNA targeting GFP (GFP-22 siRNA, Qiagen) was also used as on-plate reference for transfection efficiency. The median absolute deviation (MAD)-based z-score was calculated for each sample.

Setting [3] is: Table 4, primary screen, 72 h, negative control = 100%.

Regarding “212 (GAGCAGAGAUCAUAACCAATT; chemistry not given here; listed as Homo sapiens) [compound 212]”, in data set [1] (setting [3]), the “Viable cell density (%)” value was 108.211% and the “per cell luciferase yield (%)” value was found to be 141.104%.

In the case of “213 (GGCUGAAUGUAACAGAGGATT; chemistry not given here; listed as Homo sapiens) [compound 213]”, in data set [1], the “Luciferase activity (%)” value is 127.6%, the “Per cell luciferase yield (%)” value turned out to be 134.5% and the “Viable cell number (%)” value came out at 94.9%.

On to “214 (CCGUAGACUCGCUCAUCUCTT; chemistry not given here; listed as Homo sapiens) [compound 214]”, for which, in data set [1], the “Luciferase activity (%)” value is given as 174.4%, the “Per cell luciferase yield (%)” value is 204.2% and the “Viable cell number (%)” value is on record as 85.4%.

For the substance “215 (GCUAACUUAUUCUACUCCGTT; chemistry not given here; listed as Homo sapiens) [compound 215]”, in data set [1], the “Luciferase activity (%)” value came out at 171.1%, the “Per cell luciferase yield (%)” value stood at 154.7% and the “Viable cell number (%)” value is reported as 110.6%.

“216 (GGGAAUAGUCAGAGGGAUCTT; chemistry not given here; listed as Homo sapiens) [compound 216]”: in data set [1], the “Luciferase activity (%)” value stood at 92.8%, the “Per cell luciferase yield (%)” value came out at 90.4% and the “Viable cell number (%)” value came to 102.7%.

Turning to “217 (ACAUCGUCCACUUCCAGUATT; chemistry not given here; listed as Homo sapiens) [compound 217]”, in data set [1], the “Luciferase activity (%)” value worked out at 97.4%, the “Per cell luciferase yield (%)” value is 101.1% and the “Viable cell number (%)” value came out at 96.3%.

“218 (GGACCUCCCUGUGAAUGAUTT; chemistry not given here; listed as Homo sapiens) [compound 218]”: in data set [1], the “Luciferase activity (%)” value was 95.4%, the “Per cell luciferase yield (%)” value turned out to be 110.9% and the “Viable cell number (%)” value amounted to 86.0%.

As to “219 (CAGAUGGAUUAUUAGCUGATT; chemistry not given here; listed as Homo sapiens) [compound 219]”, in data set [1], the “Luciferase activity (%)” value came out at 94.9%, the “Per cell luciferase yield (%)” value worked out at 90.0% and the “Viable cell number (%)” value was determined as 105.4%.

For “220 (CCGGGAAAGUUUGACUGCATT; chemistry not given here; listed as Homo sapiens) [compound 220]”, in data set [1], the “Luciferase activity (%)” value worked out at 101.5%, the “Per cell luciferase yield (%)” value amounted to 133.9% and the “Viable cell number (%)” value turned out to be 75.8%.

Regarding “221 (CCACGACCAGCUUAAAGAATT; chemistry not given here; listed as Homo sapiens) [compound 221]”, in data set [1], the “Luciferase activity (%)” value was 90.5%, the “Per cell luciferase yield (%)” value was determined as 94.5% and the “Viable cell number (%)” value is 95.76%.

Turning to “222 (GACUUUCACUUCCGCCUUATT; chemistry not given here; listed as Homo sapiens) [compound 222]”, in data set [1], the “Luciferase activity (%)” value is listed as 74.3%, the “Per cell luciferase yield (%)” value is 84.7% and the “Viable cell number (%)” value was found to be 87.7%.

“223 (GAUGACUUUUGAUAGUGAATT; chemistry not given here; listed as Homo sapiens) [compound 223]”: in data set [1], the “Luciferase activity (%)” value was determined as 18.0%, the “Per cell luciferase yield (%)” value came out at 32.1% and the “Viable cell number (%)” value was 56.1%.

“224 (GCAUGUAUCUGCUUGAUAUTT; chemistry not given here; listed as Homo sapiens) [compound 224]”: in data set [1], the “Luciferase activity (%)” value is 20.0%, the “Per cell luciferase yield (%)” value was determined as 39.4% and the “Viable cell number (%)” value was found to be 50.7%.

For “225 (GCUUGCAGUUAAUAUCAUUTT; chemistry not given here; listed as Homo sapiens) [compound 225]”, in data set [1], the “Luciferase activity (%)” value was 28.4%, the “Per cell luciferase yield (%)” value is 46.7% and the “Viable cell number (%)” value came out at 60.8%.

Regarding “226 (CACUCGCAGUUAAUAUCAUTT; chemistry not given here; listed as Homo sapiens) [compound 226]”, in data set [1], the “Luciferase activity (%)” value worked out at 25.2%, the “Per cell luciferase yield (%)” value was determined as 39.0% and the “Viable cell number (%)” value is 64.6%.

In the case of “227 (CGAUGAACAUGUUAGACAUTT; chemistry not given here; listed as Homo sapiens) [compound 227]”, in data set [1], the “Luciferase activity (%)” value was determined as 30.4%, the “Per cell luciferase yield (%)” value came out at 42.2% and the “Viable cell number (%)” value is 72.1%.

For “228 (GCCCUCUGUUGGAUAUCUATT; chemistry not given here; listed as Homo sapiens) [compound 228]”, in data set [1], the “Luciferase activity (%)” value was 45.6%, the “Per cell luciferase yield (%)” value stood at 63.2% and the “Viable cell number (%)” value stood at 72.1%.

For “AAACCUGUGUUGUUCAAGAGUC (listed as RNA, chemistry not given here; listed as Homo sapiens) [miR-649, human miRNA mimic]”, in data set [2], the “Signal relative to negative control (%)” value is given as 150% and the MAD-based z-score stood at 2.0.

Consider “AACUGGCCCUCAAAGUCCCGCU (listed as RNA, chemistry not given here; listed as Homo sapiens) [miR-193b-3p, human miRNA mimic]”, for which, in data set [2], the “Signal relative to negative control (%)” value was 166% and the MAD-based z-score is given as 2.5.

As for “AACUGGCCUACAAAGUCCCAGU (listed as RNA, chemistry not given here; listed as Homo sapiens) [miR-193a-3p, human miRNA mimic]”, in data set [2], the “Signal relative to negative control (%)” value was 156% and the MAD-based z-score is reported as 2.3.

As to “ACAGAUUCGAUUCUAGGGGAAU (listed as RNA, chemistry not given here; listed as Homo sapiens) [miR-10b-3p, human miRNA mimic]”, in data set [2], the “Signal relative to negative control (%)” value was 162% and the MAD-based z-score came to 2.4.

As for “ACUCUUUCCCUGUUGCACUAC (listed as RNA, chemistry not given here; listed as Homo sapiens) [miR-130b-5p, human miRNA mimic]”, in data set [2], the “Signal relative to negative control (%)” value is on record as 178% and the MAD-based z-score was found to be 2.9.

As for AGGAGGCAGCGCUCUCAGGAC [miR-650], in data set [2], the “Signal relative to negative control (%)” value came to 163% and the MAD-based z-score turned out to be 2.5.

For the substance “CAGUGCAAUAGUAUUGUCAAAGC (listed as RNA, chemistry not given here; listed as Homo sapiens) [miR-301a-3p, human miRNA mimic]”, in data set [2], the “Signal relative to negative control (%)” value is 176% and the MAD-based z-score turned out to be 2.9.

With “CAUCCCUUGCAUGGUGGAGGG (listed as RNA, chemistry not given here; listed as Homo sapiens) [miR-188-5p, human miRNA mimic]”, in data set [2], the “Signal relative to negative control (%)” value turned out to be 177% and the MAD-based z-score was determined as 2.9.

Take “CUAUACAGUCUACUGUCUUUCC (listed as RNA, chemistry not given here; listed as Homo sapiens) [let-7f-2-3p, human miRNA mimic]”: in data set [2], the “Signal relative to negative control (%)” value worked out at 178% and the MAD-based z-score amounted to 3.0.

Consider “CUGCCAAUUCCAUAGGUCACAG (listed as RNA, chemistry not given here; listed as Homo sapiens) [miR-192-3p, human miRNA mimic]”, for which, in data set [2], the “Signal relative to negative control (%)” value worked out at 148% and the MAD-based z-score amounted to 2.0.

CUGUGCGUGUGACAGCGGCUGA [miR-210-3p]: in data set [2], the “Signal relative to negative control (%)” value was determined as 183% and the MAD-based z-score was determined as 3.2.

“GCUACUUCACAACACCAGGGCC (listed as RNA, chemistry not given here; listed as Homo sapiens) [miR-138-1-3p, human miRNA mimic]”: in data set [2], the “Signal relative to negative control (%)” value worked out at 167% and the MAD-based z-score was determined as 2.5.

Take “GUGUGUGGAAAUGCUUCUGC (listed as RNA, chemistry not given here; listed as Homo sapiens) [miR-147a, human miRNA mimic]”: in data set [2], the “Signal relative to negative control (%)” value came out at 168% and the MAD-based z-score is on record as 2.6.

“UCCGUCUCAGUUACUUUAUAGC (listed as RNA, chemistry not given here; listed as Homo sapiens) [miR-340-3p, human miRNA mimic]”: in data set [2], the “Signal relative to negative control (%)” value is on record as 159% and the MAD-based z-score was 2.3.

In the case of “UGAGGUAGUAGGUUGUAUGGUU (listed as RNA, chemistry not given here; listed as Homo sapiens) [let-7c-5p, human miRNA mimic]”, in data set [2], the “Signal relative to negative control (%)” value was 168% and the MAD-based z-score was found to be 2.6.
